Measured values taken from PMC11721617, “Novel isobavachalcone derivatives induce apoptosis and necroptosis in human non-small cell lung cancer H1975 cells” (Journal of Enzyme Inhibition and Medicinal Chemistry, 2023).
Like-named read-outs stand apart in the source and are kept apart here.

How the values were obtained:
H1975 = assay: MTT assay, cytotoxic activity / cell viability; format: cell-based, human; details: for viability at 40 µM / IC50: Homo sapiens; for IC50: NCI-H1975
Procedure: (§1) Four cell lines (H1975, A549, PC9, and Aml-12) were cultured in RPMI 1640 medium containing 10% foetal bovine serum (FBS) and 1% penicillin/streptomycin in an atmosphere with 5% CO2 and 95% relative humidity at 37 °C.
(§2) Cell viability was examined using the MTT assay. The cells grown in the logarithmic phase were seeded in 96-well plates at a density of 5 × 10^3 per well. The cells were treated with various concentrations (0, 5, 10, 20, 40, and 80 μM) of the compound at different times, respectively. At the end of time point, MTT solution (5 mg/ml) was added to each well and incubated at 37 °C for 4 h. Next, the media was removed, and formazan was dissolved in DMSO. Finally, absorbance was measured with a microplate spectrophotometer at 490 nm (Synergy HT, BioTek, VT, USA).

[1] = MTT assay, cytotoxic activity on normal hepatocytes; format: cell-based, mouse; details: Aml-12 cells (normal hepatocytes); normal mouse hepatocytes Aml-12 cells, 72 h
Procedure: as §1, §2

Aml-12 cells = assay: as above; format: cell-based, mouse; details: Aml-12 cells relative to H1975 cells
Procedure: as §1, §2

[2] = tested on: Bax, Bcl-2, Akt, Cyt C, caspase-9, caspase-3, RIP1, RIP3, p-RIP3, MLKL, p-MLKL in H1975 cells; assay: Western blotting of apoptosis- and necroptosis-related proteins; format: cell-based, human
Procedure: Cells were seeded in 100 mm dishes at a density of 3 × 10^6 cells/well and treated with different concentrations (0, 10, 20, 40, and 80 μM) of compound 16. After incubated for 24 h, the cells were harvested, and washed three times with PBS solution. Next, the cells were lysed with RIPA lysis buffer for 30 min on ice. Protein quantification was determined using the BCA protein assay kit. Equal amounts of proteins were separated by sodium dodecyl sulfate-polyacrylamide gel electrophoresis (SDS-PAGE) and transferred to PVDF membrane. The membrane was blocked with 5% non-fat milk and incubated with primary antibodies (Bax, Bcl-2, Akt, Cyt C, Caspase-9, Caspase-3, RIP1, RIP3, p-RIP3, MLKL, p-MLKL, and β-actin) for 2 h at room temperature, followed by the secondary antibodies for 2 h at room temperature. Finally, the blots were detected by a chemiluminescent gel imaging system (Bio-Rad, Hercules, CA, USA).

H1975 cells [3] = assay: Colony-formation assay; format: cell-based, human; details: 10 days
Procedure: Cells were seeded at a density of 1.5 × 10^3 cells/well into 6-well plates. When colonies formed, the media was replaced with fresh media at various concentrations of compound 16 (0, 1, 2, and 4 μM) and incubated for 10 days. At the end of the incubation time, the cells were washed three times with PBS, fixed with 4% paraformaldehyde for 15 min, stained with crystal violet solution for 10 min, and photographed.

H1975 cells [4] = assay: Detection of intracellular ROS (DCFH-DA, flow cytometry); format: cell-based, human
Procedure: Cells were seeded in 6-well plates at a density of 3 × 10^5 cells/well and incubated with different concentrations (0, 10, 20, 40, and 80 μM) of compound 16 or pre-treated with NAC (20 μM) incubated for 6 h, the cells were co-incubated with DCFH-DA for 20 min at 37° C in the dark. Finally, the intracellular ROS levels were measured using flow cytometry (Becton-Dickinson, Franklin Lakes, NJ, USA).

H1975 cells [5] = assay: ATP detection; format: cell-based, human; details: H1975, 10, 20, 40, and 80 μM, 6 h
Procedure: Cells were seeded in 6-well plates at a density of 3 × 10^5 cells/well and incubated with different concentrations (0, 10, 20, 40, and 80 μM) of compound 16 for 6 h. Afterwards, the cells were washed three times with PBS, lysed with RIPA buffer, and the lysates were centrifuged at 12 000 rpm for 5 min. The intracellular ATP levels were measured using a luminoskan luminometer (Thermo Scientific, Atlanta, GA, USA), according to the ATP assay kit’s protocol.

PC9 = assay: MTT assay, cytotoxic activity; format: cell-based; details: Homo sapiens, PC-9, PC9 cells, 72 h
Procedure: as §1, §2

A549 = assay: MTT assay, cytotoxic activity; format: cell-based, human; details: A549 cells
Procedure: as §1, §2

H1975 cells [6] = assay: Flow cytometry with Annexin V/PI dual staining; format: cell-based, human; details: 24 h
Procedure: Cells were seeded (3 × 10^5 per well) in 6-well plates and incubated overnight. After adherence, the cells were treated with various concentrations (0, 10, 20, 40, and 80 μM) of compound 16 for 24 h. Furthermore, the cells were harvested, washed three times with PBS, and stained with Annexin V (FITC Annexin V) and propidium iodide (PI) staining solution for 30 min in the dark. The percentage of cell death was measured by flow cytometry (Becton-Dickinson, Franklin Lakes, NJ, USA).

## COc1cc(C(c2cc(C(=O)C=Cc3ccc(O)cc3)c(O)c(CC=C(C)C)c2O)N2CCOCC2)cc(OC)c1OC (centres unmarked) [Compound 16, (E)-1-(2,4-Dihydroxy-3-(3-methylbut-2-en-1-yl)-5-(morpholino(3,4,5-trimethoxyphe-nyl)methyl)phenyl)-3-(4-hydroxyphenyl)prop-2-en-1-one]
H1975; H1975, compound 16 (40 μM) 24 h, pre-treatment with NAC, p < 0.01, Figure 6(F)
  Effect of NAC on compound 16 induced cell death (cell viability): protective effect
H1975; H1975, compound 16 (40 μM) 24 h, pre-treatment with NSA (20 μM), p < 0.01
  Effect of NSA (MLKL inhibitor) on compound 16 induced necroptosis (cell viability): protective effect
H1975; H1975, compound 16 (40 μM) 24 h with pre-treatment with Nec-1 (20 μM), Figure 4(D)
  Cell viability: 25.33%
H1975; NCI-H1975, 24 h, H1975, compound 16 (40 μM) alone, 24 h, Figure 3(C)
  viability at 40 µM: 12.7%
H1975; NCI-H1975, 24 h, H1975, compound 16 (40 μM) alone, 24 h, Figure 4(D)
  viability at 40 µM: 14.8%
H1975; NCI-H1975, H1975, compound 16 (40 μM) 24 h with pre-treatment with z-VAD-FMK (20 μM), Figure 3(C)
  viability at 40 µM: 35.4%
H1975; H1975 cells, 72 h, MTT, read-out: Cytotoxic activity IC50, H1975
  IC50: 4.35 µM
H1975; read-out: IC50 values against H1975 and A549 cell lines (range over both)
  IC50: 4.35 to 15 µM
[1]
  IC50 at 72 h: 10.1 ± 0.58 µM
Aml-12 cells
  SI value (selective inhibition): 2.32
[2]; H1975, 20, 40, and 80 µM
  RIP1 protein levels: down-regulation
[2]; H1975, 24 h
  Bax and Cyt C expression: increasing
  Bcl-2 and Akt protein levels: decreasing
  Caspase-9 and -3: cleaving
  Expression of RIP3, p-RIP3, MLKL, and p-MLKL protein levels: increased
H1975 cells [3]; H1975, 1 μM
  Colony formation rate: 51.34%
H1975 cells [3]; H1975, 2 μM
  Colony formation rate: 27.70%
H1975 cells [3]; H1975, 4 μM
  Colony formation rate: 14.87%
H1975 cells [4]; H1975, 10 μM, 6 h
  Intracellular ROS level enhancement: 1.86%
H1975 cells [4]; H1975, 20 μM, 6 h
  Intracellular ROS level enhancement: 2.21%
H1975 cells [4]; H1975, 40 μM, 6 h
  Intracellular ROS level enhancement: 3.74%
H1975 cells [4]; H1975, 80 μM, 6 h
  Intracellular ROS level enhancement: 5.82%
H1975 cells [4]; H1975, compound 16 (40 μM) alone, Figure 6(E)
  Intracellular ROS level enhancement: 3.75%
H1975 cells [4]; H1975, compound 16 (40 μM) in combination with NAC (20 μM), Figure 6(E)
  Intracellular ROS level enhancement: 2.02%
H1975 cells [5]
  Cellular ATP levels: gradually decreased
PC9
  IC50: 16.1 µM
A549
  Enhancement of cytotoxic effects compared to IBC: 1.53 fold
A549; Homo sapiens, 72 h, MTT
  IC50: 14.2 µM
H1975 cells [6]; H1975, 10 μM
  Cell death rate (Annexin V/PI): 14.7%
H1975 cells [6]; H1975, 20 μM
  Cell death rate (Annexin V/PI): 22.7%
H1975 cells [6]; H1975, 40 μM
  Cell death rate (Annexin V/PI): 34.3%
H1975 cells [6]; H1975, 80 μM
  Cell death rate (Annexin V/PI): 54.9%
